Results reported in US20130310387A1, “Monocyclic Heteroaryl Cycloalkyldiamine Derivatives” (NOVARTIS AG, priority 2012, published 2013).

Legend:
hERG channel = target: T1, hERG channel (Homo sapiens, UniProt Q12809); assay: Inhibition of the hERG channel (manual patch clamp assay); type: cell-based; details: HEK293 cells stably transfected with hERG cDNA, whole-cell patch clamp, tail current
T1 construct: host or cells: HEK293
Source text: The hERG patch clamp assay was done according to standard procedures used in Genetic Toxicology and Safety Pharmacology, based on recommendations and descriptions of methods in the literature, and according to current guidelines (ICH S7B, The non clinical evaluation of the potential for delayed ventricular repolarization (QT interval prolongation) by human pharmaceuticals, 2005). The purpose of the study is to assess the effect of the test item ABC123 on tail current recorded from HEK293 cells stably transfected with hERG cDNA. The HEK293 cells, which have been stably transfected with hERG cDNA, are a model considered to be suitable for this purpose (Zhou et al., 1998). Repolarisation of cardiac ventricular myocytes is mainly due to outward potassium currents. The most important current in humans is the delayed rectifier potassium current, IK, which has both rapidly and slowly activating components (IKr and IKs) (Sanguinetti and Jurkiewicz, 1990). The human ether-a-gogo-related-gene (hERG) encodes the major protein underlying IKr. Thus, inhibition of hERG potassium channels may lead to delayed cardiac repolarisation (Sanguinetti et al., 1995). Prolongation of cardiac repolarisation is a side effect that can be associated with some drug therapies. This proarrhythmic alteration is characterised by a prolongation of the QT interval in the surface electrocardiogram and is of particular concern because it may lead to the development of polymorphic ventricular arrhythmias like torsade de pointes (for review see: Vandenberg, Walker and Campbell, 2001). […] HERG HEK (HEK293 cells stably transfected with hERG cDNA) obtained from the University of Wisconsin were used. For the experiments the cells were plated onto sterile Thermanox plastic coverslips (Nalge Nunc International) in 6-well plates. The dishes were stored in a humidified, gassed incubator. The coverslips with cells were transferred to the recording chamber and continuously superfused (at approximately 1-2 ml/min) with vehicle. The temperature of the vehicle in the bath chamber was regulated by temperature controllers to 35° C.±2.0° C. hERG currents were measured in the whole-cell patch-clamp configuration. Once a stable patch clamp configuration was achieved, recording commenced in voltage-clamp mode, with the cell initially clamped at -75 mV. hERG current was observed and recorded if a stable hERG tail current response could be induced. […] The hERG HEK293 cells were treated approximately 9 min with the test item. The following voltage protocol was applied to induce hERG currents: The step from -75 mV to +10 mV activates an outward current (i.e. current flows out of the cell) and the step from +10 mV to -40 mV produces the tail current (the tail current represents the time taken for the current to turn off). […] The leak current was recorded and subtracted by a P/3n pulse between the voltage pulses (0.1 Hz).

[1] = target: Syk (2-635) (KSYK_HUMAN, P43405) (Homo sapiens, UniProt P43405); assay: Syk enzyme assay (chip based microfluidic mobility shift assay); type: biochemical; details: 4 μM ATP, 4 nM Syk, 60 minutes at 30° C.
Protocol: A number of compounds of the present invention were assayed in a chip based microfluidic mobilitiy shift assay. All assays were performed in 384 well microtiter plates. Each assay plate contained 8-point serial dilutions for 40 test compounds, as well as four 8-point serial dilutions of staurosporine as reference compound, plus 16 high- and 16 low controls. Liquid handling and incubation steps were done on a Thermo CatX workstation equipped with a Innovadyne Nanodrop Express. Between pipetting steps, tips were cleaned in wash cycles using wash buffer. The assay plates were prepared by addition of 50 nl per well of compound solution in 90% DMSO. […] Kinase reactions were incubated at 30° C. for 60 minutes and subsequently terminated by addition of 16 μl per well of stop solution (100 mM HEPES pH 7.5, 5% DMSO, 0.1% Caliper coating reagent, 10 mM EDTA, and 0.015% Brij35). Plates with terminated kinase reactions were transferred to the Caliper LC3000 workstations for reading. Phosphorylated and unphosphorylated peptides were separated using the Caliper microfluidic mobility shift technology. Briefly, samples from terminated kinase reactions were applied to the chip. Analytes are transported through the chip by constant buffer flow and the migration of the substrate peptide is monitored by the fluorescence signal of its label. Phosphorylated peptide (product) and unphosphorylated peptide (substrate) are separated in an electric field by their charge/mass ratio. Kinase activities were calculated from the amounts of formed phospho-peptide. […] values were determined from percent inhibition values at different compound concentrations by non-linear regression analysis.
Test compounds were dissolved in DMSO (10 mM) and transferred into 1.4 mL flat bottom or V-shaped Matrix tubes carrying a unique 2D matrix. The stock solutions were stored at […] if not used immediately. For the test procedure the vials were defrosted and identified by a scanner whereby a working sheet was generated that guided the subsequent working steps.
Compound dilutions were made in 96 well plates. This format enabled the assay of maximally 40 individual test compounds at 8 concentrations (single points) including 4 reference compounds. The dilution protocol included the production of “pre-dilution plates”, “master plates” and “assay plates”.
96 polypropylene well plates were used as pre-dilution plates. A total of 4 pre-dilution plates were prepared including 10 test compounds each on the plate positions A1-A10, one standard compound at A11 and one DMSO control at A12. All dilution steps were done on a HamiltonSTAR robot.
30 μL of individual compound dilutions including standard compound and controls of the 4 “pre-dilution plates” were transferred into a 384 “master plate” including the following concentrations 1′810, 362, 72.5, […], 14.5, 2.9, 0.58 and 0.12 μM, respectively in 90% of DMSO.
Identical “assay plates” were then prepared by pipetting […] each of compound dilutions of the “master plates” into 384-well “assay plates” by means of a HummingBird 384-channel dispenser. These plates were used directly for the assay which was performed in a total volume of 9.05 μL. This led to a final compound concentration of 10, 2.0, 0.4, 0.08, 0.016, 0.0032, 0.00064 and 0.000128 μM and a final DMSO concentration of 0.5% in the assay.

OCI-Ly3 cells = assay: B-cell lymphoma cell proliferation (WST-1 assay), OCI-Ly3; type: cell-based; details: OCI-Ly3, 3 days of incubation
Protocol: Cell proliferation was determined using the WST-1 assay (Roche, Mannheim, Germany), which measures the metabolic activity of the cells. […] The cell proliferation reagent WST-1 (10 μl/well) was added to the cells for 1-2 hours depending on the cell type which were cultured in 200 μl of medium. The absorbance was then measured with an enzyme-linked immunosorbent assay plate reader at a wavelength of 450 nm.

TMD-8 cells = assay: cells; details: Homo sapiens, TMD8, 96 h
HBL-1 cells = assay: cells; details: HBL1, 96 h

T1 sequence (Q12809 whole entry): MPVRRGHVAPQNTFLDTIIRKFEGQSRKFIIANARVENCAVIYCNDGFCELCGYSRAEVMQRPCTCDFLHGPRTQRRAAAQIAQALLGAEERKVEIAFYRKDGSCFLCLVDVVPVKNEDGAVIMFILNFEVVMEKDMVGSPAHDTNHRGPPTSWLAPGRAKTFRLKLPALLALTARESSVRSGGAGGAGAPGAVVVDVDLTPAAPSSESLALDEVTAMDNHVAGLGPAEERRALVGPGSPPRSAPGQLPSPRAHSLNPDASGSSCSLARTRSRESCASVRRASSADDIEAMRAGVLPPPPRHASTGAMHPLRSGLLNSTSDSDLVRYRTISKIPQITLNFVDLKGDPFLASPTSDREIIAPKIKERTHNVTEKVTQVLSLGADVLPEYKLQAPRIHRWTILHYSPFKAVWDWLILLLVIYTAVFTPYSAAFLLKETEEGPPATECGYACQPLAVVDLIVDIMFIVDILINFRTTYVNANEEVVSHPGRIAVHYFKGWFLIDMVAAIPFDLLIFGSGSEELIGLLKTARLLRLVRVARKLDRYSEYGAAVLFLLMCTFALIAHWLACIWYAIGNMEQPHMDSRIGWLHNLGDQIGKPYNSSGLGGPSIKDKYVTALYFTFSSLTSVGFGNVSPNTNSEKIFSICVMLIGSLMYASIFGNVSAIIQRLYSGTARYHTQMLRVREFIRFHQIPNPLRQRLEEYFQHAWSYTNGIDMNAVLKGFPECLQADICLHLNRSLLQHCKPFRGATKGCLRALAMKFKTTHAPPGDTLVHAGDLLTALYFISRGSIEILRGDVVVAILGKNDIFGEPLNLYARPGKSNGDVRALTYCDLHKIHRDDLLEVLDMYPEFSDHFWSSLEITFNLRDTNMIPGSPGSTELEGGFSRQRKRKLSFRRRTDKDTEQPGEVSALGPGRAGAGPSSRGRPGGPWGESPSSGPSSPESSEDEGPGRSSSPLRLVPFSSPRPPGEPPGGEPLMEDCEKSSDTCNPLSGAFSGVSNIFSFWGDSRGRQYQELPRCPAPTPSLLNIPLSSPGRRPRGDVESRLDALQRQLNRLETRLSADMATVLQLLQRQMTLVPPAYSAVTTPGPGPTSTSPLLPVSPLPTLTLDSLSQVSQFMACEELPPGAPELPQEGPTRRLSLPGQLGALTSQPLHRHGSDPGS

Compound NC(=O)c1nnc(N[C@@H]2CCCC[C@@H]2N)nc1Nc1cccc2cc[nH]c12 [Example 1.1, 3-((1R,2S)-2-Amino-cyclohexylamino)-5-(1H-indol-7-ylamino)-[1,2,4]triazine-6-carboxylic acid amide] has an inhibition at 9 min, 10 µM (hERG channel; at 10 uM) of -5 ± 4%, an inhibition at 9 min, 30 µM (hERG channel; at 30 uM) of 12 ± 6% and an IC50 [1] of 0.023 µM. For the same compound, the GI50 (OCI-Ly3 cells) was “No inhibition”, the GI50 (TMD-8 cells) was 0.281 µM and the GI50 (HBL-1 cells) was 0.105 µM.
